# Measurements reported in patent US20240261333A1, “NOVEL TARGETS FOR ENHANCING ANTI-TUMOR IMMUNITY” (THE BROAD INSTITUTE, INC., priority 2021, published 2024).
# Key:
# Assay type in all cases: cell-based, human
# [1] = tested on: CCLF_PANC_0014_T primary patient-derived pancreatic adenocarcinoma; test: T cell cytotoxicity assay, primary patient-derived pancreatic adenocarcinoma against HER2 CAR T cells; conditions: CCLF_PANC_0014_T treated with small molecule inhibitor
# Description: (§1) Expanded T cells were thawed and maintained in culture media for 8-10 h before incubation with cancer cells. Cancer cells were seeded in 96-well plates and allowed to attach for 3-4 h before T cells were added at the appropriate effector to target cell (E:T) ratio. Paired controls with no T cells added were included for each condition. After 18 h, cancer cells were washed twice with PBS to remove T cells, passaged, and cultured for 2 days. Primary patient-derived cell models were not passaged after T cell co-culture. Viability was measured using CellTiter-Glo (Promega G7571). For each E:T ratio, percent survival was calculated as viability of the cells incubated with T cells divided by viability of the paired control that was not incubated with T cells. For example, CD274-overexpressing melanoma cells that were co-cultured with ESO T cells were compared to CD274-overexpressing melanoma cells that were cultured without T cells in parallel. As an alternative cytotoxicity assay, A375 cells stably expressing Gaussia luciferase were co-cultured with ESO T cells. At each time point, 10% of cell culture media was used for the Gaussia luciferase assay (Targeting Systems GAR-2B) to directly measure cytotoxicity. […]
# [2] = tested on: CCLF_MELM_0011_T primary patient-derived melanoma model; test: T cell cytotoxicity assay, primary patient-derived melanoma model against AXL or HER2 CAR T cells; conditions: CCLF_MELM_0011_T treated with small molecule inhibitor
# Description: as §1
# [3] = tested on: A375 cells overexpressing B3GNT2; test: Binding of recombinant T cell proteins to A375 cells, flow cytometry
# Description: For glycosylation inhibition, cells were treated with 20 μg/mL Kifunensine (Cayman Chemical 10009437) or 2 mM Benzyl 2-acetamido-2-deoxy-alpha-D-galactopyranoside (BAG; Millipore Sigma B4894-100MG) for 48 h to inhibit N- and O-glycosylation respectively unless otherwise indicated. For MCL1 inhibition, cells were treated with 1-10 μM of S63845 (Selleck Chemicals S8383) or AZD5991 (Selleck Chemicals S8643) for 4 h before incubation with T cells. Both glycosylation and MCL1 inhibitors were maintained at indicated concentrations during co-culture with T cells.
# Per condition, 5×10^5 cells were pelleted at 200×g for 5 min and washed once with PBS. Cell were fixed in 4% Formaldehyde in PBS at 4° C. for 10 mins. Cells were washed twice with PBS and resuspended in PBS with 25 μg/mL recombinant Fc chimera proteins [PVRIG (R&D Systems 9365-PV-050), CD226 (R&D Systems 666-DN-050), NKG2D (R&D 1299-NK-050), TREML2 (R&D Systems 3259-TL-050), CD2 (R&D Systems 1856-CD-050), CD96 (R&D Systems 9360-CD-050), TIGIT (BPS Bioscience 71186), CD27 (BPS Bioscience 71176), or 4-1BB (TNFRSF9; Sino Bio 10041-H03H)], 0.1 μg/mL HLA-A2:NY-ESO-1 Fab (Stewart-Jones et al., 2009), 5 μg/mL Fas antibody (Millipore Sigma 05-201), 25 μg/mL TNFRSF10B antibody (Novus Biologicals NB100-56618, 1:200), or Dylight 649 labeled Tomato Lectin (Vector Laboratories DL-1178, 1:100). Cells were incubated at 4° C. for 1 h. Cells were washed twice with PBS and resuspended in PBS with the appropriate secondary antibody [IgG Fc PE (Thermo Fisher Scientific 12-4998-82, 1:50), His Tag Alexa Fluor 647 (Thermo Fisher Scientific MA121315A647), mouse Alexa Fluor 568 (Thermo Fisher Scientific A-11031), or rabbit Alexa Fluor 647 (Thermo Fisher Scientific A-21244)]. Cells stained with Tomato Lectin were not incubated with additional secondary antibodies. […] For each sample, 10,000 cells were analyzed on a CytoFLEX Flow Cytometer (Beckman Coulter) and quantified with FlowJo (FlowJo). For each experiment, median fluorescence values for 3 biological replicates were compared to determine statistical significance.
structure (smiles),measurement,setting,value
O=C1N[C@@H]2[C@@H](O)[C@@H](O)[C@H](O)[C@@H](CO)N2C1=O [kifunensine],"Cell survival against T cell cytotoxicity, primary patient-derived pancreatic adenocarcinoma model",[1],reduced survival
same,"Cell survival against T cell cytotoxicity, primary patient-derived melanoma model",[2],reduced survival
same,Binding of recombinant T cell proteins to A375 cells,"[3]; B3GNT2-overexpressing A375 treated with inhibitor, CD2, 4-1BB, TREML2, NKG2D",rescued the reduction in T cell protein binding
same,HLA-A2:NY-ESO-1 antibody binding to A375 cells,[3]; B3GNT2-overexpressing A375 treated with kifunensine,further reduced binding
